What was measured:
Assay type in all cases: cell-based
[1] = tested on: Staphylococcus epidermidis DSM 20 042; test: Bactericidal activity of haloperoxidase with ammonium halides vs potassium/sodium halides as electron donors, Example 3; details: for bactericidal activity (possible): ammonium halide salt as electron donor, summary of Table 1; for Log reduction in cell number: haloperoxidase 1 mg/l, 0.5 mM H2O2, pH 6.0, 15 min 40° C.
Procedure: (§1) The bactericidal activity was determined by incubation in Malthus. The detection times measured by the Malthus instrument were converted to cfu/ml by a calibration curve.
(§2) Either direct or indirect Malthus measurements were used when enumerating total survival cells (Malthus Flexi M2060, Malthus Instrument Limited). By the direct measurements, the cell metabolism was determined by conductance measurements in the growth substrate. By the indirect measurements, 3 ml of growth medium was transferred to the outer chamber of the indirect Malthus cells, and 0.5 ml of sterile KOH (0.1 M) was transferred to the inner chamber. The cell suspensions were after enzyme treatment transferred to the outer chamber of the Malthus cell. As cells are growing in the outer chamber they produce CO2 which will dissolve in the KOH in the inner chamber and thereby change the conductance of the KOH. The amount of CO2 formed by the respiring cells surviving the enzyme treatment was used for estimating the number of viable cells. When the conductance change is measurable by the Malthus, a detection time (dt) will be recorded. The dt's were converted to colony counts by use of a calibration curve relating cfu/ml to dt (FIG. 1).
(§3) The antibacterial activity of a haloperoxidase (1 mg/l) was tested in MES-buffer (2-[N-morpholino] ethanesulfonic acid) (pH 6.0) against Staphylococcus epidermidis DSM 20 042 with ammonium iodide, ammonium chloride or ammonium bromide as electron donors, and hydrogen peroxide was added as electron acceptor giving the final concentration 0.5 mM. The cells (approximately 10^6 cfu/ml) were incubated with enzyme for 15 min at 40° C. The bactericidal activity was determined by incubation in Malthus (see Example 1).

[2] = tested on: Staphylococcus epidermidis DSM 20 042; test: Bactericidal activity of haloperoxidase with iodide or bromide, with or without NH4+, Example 2; details: haloperoxidase 1 mg/l
Procedure: as §1, §2
as §3, with “potassium iodide and potassium” for “ammonium iodide, ammonium chloride or ammonium”, “donor,” for “donors,”, “peroxide (to a final concentration of 0.5 mM)” for “peroxide”, “in” for “giving”, “presence of NH4^+.” for “final concentration 0.5 mM.”

[3] = tested on: Staphylococcus epidermidis DSM 20 042; test: Bactericidal activity of haloperoxidase (rCvP) system, Malthus detection, Example 1; details: haloperoxidase 1 mg/l, 0.5 mM H2O2, pH 6
Procedure: (§4) The antibacterial activity of a haloperoxidase was tested in MES-buffer (2-[N-morpholino] ethanesulfonic acid)(pH 6.0) against Pseudomonas aeruginosa ATCC 10146 and Staphylococcus epidermidis DSM 20 042 with sodium chloride as electron donor, and hydrogen peroxide was added as electron acceptor in the presence of NH4+. The cells (approximately 10^6 cfu/ml) were incubated with the enzyme for 15 min at 40° C.
as §1, §2
(§5) Hydrogen peroxide was added to a final concentration of 0.5 mM.

[4] = tested on: Pseudomonas aeruginosa ATCC 10146; test: as above; details: haloperoxidase 1 mg/l, 0.5 mM H2O2, pH 6
Procedure: as §4, §1, §2, §5

[5] = tested on: Staphylococcus epidermidis DSM 20 042; test: Bactericidal activity of haloperoxidase with chloride and ethanolamine, HEPES pH 7.0, Example 4; details: haloperoxidase 1 mg/L, chloride 80 mM, ethanolamine 2.5 mM, 0.5 mM H2O2, pH 7.0
Procedure: as §1
as §2, with “The amount of CO2 formed by the respiring cells surviving the enzyme treatment was used for estimating the number of viable cells.” left out, “The dt's were converted to colony counts by use of a calibration curve relating cfu/ml to dt (FIG. 1).” left out
The antibacterial activity of Curvularia verruculosa haloperoxidase (1 mg/L) was tested in HEPES-buffer (Sigma H3375)(pH 7.0) against Staphylococcus epidermidis DSM 20 042 with chloride (80 mM) as electron donor combined with ethanolamine (2.5 mM), and hydrogen peroxide was added as electron acceptor giving the final concentration 0.5 mM. […] The bactericidal activity was determined by incubation in Malthus (see Example 1).

[6] = 0.5 mM H2O2, pH 6.0, no ammonium

SMILES: Br.N [BrNH4, ammonium bromide]
- bactericidal activity (possible) [1]: 100%
- Log reduction in cell number ([1]; halide 4 mM): 3.7 log cfu/ml
- Log reduction in cell number ([1]; halide 8 mM): 6.2 log cfu/ml

SMILES: Cl.N [ClNH4, ammonium chloride]
- bactericidal activity (possible) [1]: 100%
- Log reduction in cell number ([1]; halide 25 mM): 6.2 log cfu/ml
- Log reduction in cell number ([1]; halide 50 mM): 6.2 log cfu/ml

SMILES: I.N [INH4, ammonium iodide]
- bactericidal activity (possible) [1]: 100%
- Log reduction in cell number ([1]; halide 0.21 mM): 6.2 log cfu/ml
- Log reduction in cell number ([1]; halide 0.5 mM): 6.2 log cfu/ml

SMILES: [Br-].[K+] [KBr, potassium bromide]
- Log reduction in cell number ([1]; halide 4 mM): 2.8 log cfu/ml
- Log reduction in cell number ([1]; halide 8 mM): 5.4 log cfu/ml
- bromide concentration needed for 100% bactericidal activity [2, 6]: > 10 mM

SMILES: [I-].[K+] [KI, potassium iodide]
- Log reduction in cell number ([1]; halide 0.25 mM): 5.1 log cfu/ml
- Log reduction in cell number ([1]; halide 0.5 mM): 6.1 log cfu/ml
- iodide concentration for 100% bactericidal activity ([2]; 0.5 mM H2O2, pH 6.0, ammonium added (FIG. 3)): 0.05-0.1 mm
- iodide concentration for 100% antibacterial activity [2, 6]: about 0.2 mM

SMILES: [Cl-].[Na+] [NaCl, sodium chloride]
- Log reduction in cell number ([1]; halide 25 mM): 0.5 log cfu/ml
- Log reduction in cell number ([1]; halide 50 mM): 0.8 log cfu/ml
- NaCl concentration at which antibacterial activity was observed [3]: above 20 mM
- NaCl concentration at which plateau of antibacterial activity was reached [3]: approximately 100 mM
- NaCl concentration at which antibacterial activity was observed [4]: above 20 mM
- NaCl concentration at which plateau of antibacterial activity was reached [4]: approximately 100 mM

SMILES: NCCO [ethanolamine]
- kill [5]: 100%

From patent US6818212B2, “Antimicrobial composition containing a haloperoxidase, a hydrogen peroxide source, a halide source and an ammonium source” (Novozymes A/S, priority 1997, dated 2004)
